These results are taken from paper doi:10.1101/469072v1 (biorxiv, 2018).

Where two headings read alike, the source gives them in different places. Where only a bound is given, the exact number is not on record here.

For assay [1], the target named is T1, TbHK1 (Trypanosoma brucei, UniProt Q38C42).
T1 sequence (Q38C42 1-471): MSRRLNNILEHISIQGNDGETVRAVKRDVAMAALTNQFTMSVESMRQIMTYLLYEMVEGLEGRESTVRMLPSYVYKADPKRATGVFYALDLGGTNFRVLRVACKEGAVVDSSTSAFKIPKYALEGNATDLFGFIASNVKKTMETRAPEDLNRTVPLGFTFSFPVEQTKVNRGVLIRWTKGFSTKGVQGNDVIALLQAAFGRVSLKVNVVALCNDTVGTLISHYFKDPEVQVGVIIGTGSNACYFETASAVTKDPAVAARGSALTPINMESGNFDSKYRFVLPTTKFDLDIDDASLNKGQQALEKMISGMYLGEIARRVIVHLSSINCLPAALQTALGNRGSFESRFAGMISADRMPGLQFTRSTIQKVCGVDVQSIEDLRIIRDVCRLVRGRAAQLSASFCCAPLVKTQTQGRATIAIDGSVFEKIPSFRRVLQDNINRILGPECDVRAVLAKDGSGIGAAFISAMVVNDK
Briefly: enzyme inhibition assay. The format is biochemical.

Assay [2] concerns the target NfGlck. Briefly: coupled glucokinase assay, absorbance at […] nm. The assay is classed as biochemical, Naegleria fowleri. The conditions noted are these: pH 7.4, MgCl2.
For assay [3], the target named is T2, HsGlck (Homo sapiens, UniProt P35557).
T2 sequence (P35557 1-465): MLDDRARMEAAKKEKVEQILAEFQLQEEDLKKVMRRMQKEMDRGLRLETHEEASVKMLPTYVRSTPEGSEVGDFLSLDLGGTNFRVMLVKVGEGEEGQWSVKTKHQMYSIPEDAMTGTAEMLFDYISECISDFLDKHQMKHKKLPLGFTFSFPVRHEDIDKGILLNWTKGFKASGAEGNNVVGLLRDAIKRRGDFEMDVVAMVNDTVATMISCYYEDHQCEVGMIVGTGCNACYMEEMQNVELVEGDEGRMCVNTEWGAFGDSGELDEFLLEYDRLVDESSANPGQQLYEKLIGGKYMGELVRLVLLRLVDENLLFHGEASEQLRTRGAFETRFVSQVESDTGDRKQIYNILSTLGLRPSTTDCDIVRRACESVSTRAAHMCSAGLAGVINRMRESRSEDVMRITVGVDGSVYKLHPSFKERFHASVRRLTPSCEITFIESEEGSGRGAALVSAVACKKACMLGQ
Kind of assay: enzyme inhibition assay. The assay is classed as biochemical.

Assay [4] addresses T1, TbHK1. The conditions noted are these: read-out: TbHK1 IC50; inhibitor.
The target of assay [5] is T2, HsGlck. Kind of assay: biochemical.
For assay [6], the system named is NfGlck. Briefly: coupled glucokinase assay, absorbance at […] nm. The note with it: read-out: apparent Km, MgCl2. The format is biochemical, Naegleria fowleri.
Assay [7] concerns the target T3, PfHK (Plasmodium falciparum, UniProt Q02155).
T3 sequence (Q02155 1-493): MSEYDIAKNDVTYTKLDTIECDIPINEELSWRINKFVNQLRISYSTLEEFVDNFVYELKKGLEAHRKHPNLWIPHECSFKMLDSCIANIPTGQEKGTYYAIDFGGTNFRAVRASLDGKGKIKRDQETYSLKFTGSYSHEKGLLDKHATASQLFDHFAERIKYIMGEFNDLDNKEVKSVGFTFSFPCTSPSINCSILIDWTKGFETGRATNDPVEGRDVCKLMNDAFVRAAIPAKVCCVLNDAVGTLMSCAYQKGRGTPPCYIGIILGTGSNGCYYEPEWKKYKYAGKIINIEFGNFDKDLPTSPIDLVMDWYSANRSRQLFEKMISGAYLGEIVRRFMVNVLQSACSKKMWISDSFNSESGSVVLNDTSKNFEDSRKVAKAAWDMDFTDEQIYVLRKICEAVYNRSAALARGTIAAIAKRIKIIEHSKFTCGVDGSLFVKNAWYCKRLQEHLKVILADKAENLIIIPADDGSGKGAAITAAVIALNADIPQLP
Kind of assay: enzyme inhibition assay. The format is biochemical.

Assay [8] concerns the target NfGlck. Kind of assay: coupled glucokinase assay, absorbance at […] nm. The format is biochemical, Naegleria fowleri.
Where [9] appears, read: mixed inhibitor with respect to ATP.

For `CC(C)(C)c1ccc(C(=O)Nc2cc(Cl)c(-c3cccc(Cl)c3)cc2C(=O)O)cc1` [compound 11, SID162211084], the concentration for half-maximal inhibition (IC50) is more than 10 µM in assay [1], 6.5 ± 0.61 µM in assay [2] and more than 10 µM in assay [3].
Take `CC(C)(C)c1ccc(C(=O)Nc2cc(Cl)c(-c3ccc(OC(F)(F)F)cc3)cc2C(=O)O)cc1` [SID162211074]: the IC50 in assay [4] and in assay [5] was more than 10 µM in each case.
As for `O=c1c2ccccc2[se]n1-c1ccccc1` [compound 3, 2-phenyl-1,2-benzisoselenazol-3(2H)-one], it took 0.88 ± 0.06 µM to reach half-maximal inhibition in assay [2] (IC50).
As to `OC[C@H]1OC(O)[C@H](O)[C@@H](O)[C@@H]1O` (stereo partly shown) [glucose], the Michaelis constant (Km) in assay [6] (co-substrate ATP) worked out at 42.5 ± 7.3 µM.
Regarding `NC(N)=Nc1ccc(-c2ccc(-c3ccc(N=C(N)N)cc3Cl)o2)c(Cl)c1` [compound 1, 2-[3-chloro-4-[5-[2-chloro-4-(diaminomethylideneamino)phenyl]furan-2-yl]phenyl]guanidine], the half-maximal inhibitory concentration (IC50) in assay [1] is 2.9 ± 1.13 µM; in assay [7], 0.78 ± 0.17 µM; in assay [2] (setting [9]), 2.02 ± 0.31 µM; in assay [3] it was more than 10 µM.
Turning to `CC(C)(C)c1ccc(C(=O)Nc2cc(Cl)c(-c3ccc(C(F)(F)F)cc3)cc2C(=O)O)cc1` [SID162211070], the half-maximal inhibitory concentration (IC50) in assay [4] and in assay [5] was more than 10 µM throughout.
As to `COc1cccc(-c2cc(C(=O)O)c(NC(=O)c3ccc(C(C)(C)C)cc3)cc2Cl)c1` [compound 14, SID162211075], the IC50 in assay [1] was 3.9 ± 0.65 µM; in assay [2], more than 10 µM.
Turning to `CC(C)(C)c1ccc(C(=O)Nc2cc(Cl)c(-c3ccccc3O)cc2C(=O)O)cc1` [compound 17, SID162211085], the IC50 is 1.2 ± 0.1 µM in assay [1], more than 10 µM in assay [2] and more than 10 µM in assay [3].
For `CC(C)(C)c1ccc(C(=O)Nc2cc(Cl)c(-c3ccccc3F)cc2C(=O)O)cc1` [compound 10, SID162211083], the values for the IC50 in assay [1], in assay [2] and in assay [3] were 6.7 ± 1 µM, more than 10 µM and more than 10 µM, respectively.
For `CC(C)(C)c1ccc(C(=O)Nc2cc(Cl)c(-c3cccc([N+](=O)[O-])c3)cc2C(=O)O)cc1` [SID162211082], the IC50 in assay [4] and in assay [5] was more than 10 µM each time.
As for `CC(C)(C)c1ccc(C(=O)Nc2cc(Cl)c(-c3ccc(F)c(Cl)c3)cc2C(=O)O)cc1` [compound 12, SID162211073], the IC50 in assay [1] is more than 10 µM; in assay [2] it was 5.9 ± 0.26 µM; in assay [3], more than 10 µM.
In the case of `Cc1ccccc1-c1cc(C(=O)O)c(NC(=O)c2ccc(C(C)(C)C)cc2)cc1Cl` [compound 18, SID162211086], the half-inhibitory concentration (IC50) in assay [1], in assay [2] and in assay [3] was more than 10 µM throughout.
With `CC(C)(C)c1ccc(C(=O)Nc2cc(Cl)c(-c3cccc(F)c3)cc2C(=O)O)cc1` [compound 9, SID162211078], the IC50 in assay [1], in assay [2] and in assay [3] was more than 10 µM each time.
In assay [2], `O=c1c2ccccc2sn1-c1ccccc1` [compound 4, Ebsulfur] had a half-maximal inhibitory concentration (IC50) of more than 10 µM.
`Nc1ncnc2c1ncn2[C@@H]1O[C@H](COP(=O)(O)OP(=O)(O)O)[C@@H](O)[C@H]1O` [ADP] displayed a Ki in assay [8] of 116 ± 7 µM.
For `Nc1ncnc2c1ncn2[C@@H]1O[C@H](COP(=O)(O)OP(=O)(O)OP(=O)(O)O)[C@@H](O)[C@H]1O` [ATP], in assay [6] (co-substrate glucose), the Michaelis constant (Km) worked out at 142 ± 9.9 µM.
Consider `CC(C)(C)c1ccc(C(=O)Nc2cc(Cl)c(-c3ccccc3)cc2C(=O)O)cc1` [compound 8, SID144241590], for which the 50% inhibitory concentration (IC50) in assay [1] is 0.28 µM; in assay [7], more than 10 µM; in assay [2], more than 10 µM; in assay [3] it was more than 10 µM.
For the compound `CC(C)(C)c1ccc(C(=O)Nc2cc(Cl)c(-c3ccc(C(=O)O)cc3)cc2C(=O)O)cc1` [SID162211072], the half-maximal inhibitory concentration (IC50) in assay [4] was 3.5 µM; in assay [5] it was more than 10 µM.
With `COc1ccccc1-c1cc(C(=O)O)c(NC(=O)c2ccc(C(C)(C)C)cc2)cc1Cl` [compound 15, SID162211076], the IC50 is 9.3 ± 0.55 µM in assay [1], more than 10 µM in assay [2] and more than 10 µM in assay [3].
Consider `CC(C)(C)c1ccc(C(=O)Nc2cc(Cl)c(-c3cccnc3)cc2C(=O)O)cc1` [compound 7, SID162211077], for which the half-maximal inhibitory concentration (IC50) in assay [1], in assay [2] and in assay [3] was more than 10 µM in each case.
Consider `NC(N)=Nc1ccc(-c2ccc(-c3ccc(N=C(N)N)c(Cl)c3)o2)cc1Cl` [compound 2, 2-[2-chloro-4-[5-[3-chloro-4-(diaminomethylideneamino)phenyl]furan-2-yl]phenyl]guanidine], for which the 50% inhibitory concentration (IC50) came to 1.3 ± 0.43 µM in assay [1], 0.16 ± 0.06 µM in assay [7], 0.7 ± 0.09 µM in assay [2] (setting [9]) and 2.58 ± 0.53 µM in assay [3].
For the compound `N[C@H]1C(O)O[C@H](CO)[C@@H](O)[C@@H]1O` (stereo partly shown) [glucosamine], the inhibitory constant (Ki) in assay [8] (competitive inhibitor of glucose) stood at 186 ± 20.6 µM.
Consider `CC(C)(C)c1ccc(C(=O)Nc2cc(Cl)c(-c3ccc(O)cc3)cc2C(=O)O)cc1` [compound 16, SID162211079], for which the results for the IC50 in assay [1], in assay [2] and in assay [3] were 3.1 ± 0.17 µM, more than 10 µM and more than 10 µM, respectively.
Turning to `CC(C)(C)c1ccc(C(=O)Nc2cc(Cl)c(-c3ccc(Cl)c(Cl)c3)cc2C(=O)O)cc1` [compound 13, SID162211080], the results for the half-maximal inhibitory concentration (IC50) in assay [1], in assay [2] and in assay [3] were more than 10 µM, 2.9 ± 0.32 µM and more than 10 µM, respectively.
With `CC(C)(C)c1ccc(C(=O)Nc2cc(Cl)c(C3CC3)cc2C(=O)O)cc1` [compound 6, SID162211071], the half-maximal inhibitory concentration (IC50) in assay [1] was 6.7 ± 0.38 µM; in assay [2] it was more than 10 µM; in assay [3] it was more than 10 µM.

Broadly, the IC50 is the concentration needed to halve the response being measured. Usually Km stands for the concentration of substrate that gives half-maximal velocity. As usually defined, the Ki is the dissociation constant of the complex between target and ligand, obtained from inhibition or displacement. Read a low Ki as higher affinity.
